Measurements: patent publication US9518018B2, “3-alkoxy, thioalkyl and amino-4-amino-6-(substituted)picolinates and their use as herbicides” (Dow AgroSciences LLC, priority 2011, dated 2016)

How the values were obtained:
Assay in all cases: Post-Emergent Test I herbicidal activity
Type in all cases: in vivo
[1] = system: ABUTH: velvetleaf (Abutilon theophrasti); conditions: Abutilon theophrasti, post-emergence, 336 h, read-out: Visual Growth Reduction (%)-14 Days after Application ABUTH; for pest or weed control at 140 g/ha: Table 3, 140 g ai/ha; for pest or weed control at 280 g/ha: Table 3, 280 g ai/ha; for pest or weed control at 70 g/ha: Table 3, 70 g ai/ha
Experimental: (§1) Seeds or nutlets of the desired test plant species were planted in Sun Gro Metro-Mix® 360 planting mixture, which typically has a pH of 6.0 to 6.8 and an organic matter content of about 30 percent, in plastic pots with a surface area of 64 square centimeters. When required to ensure good germination and healthy plants, a fungicide treatment and/or other chemical or physical treatment was applied. The plants were grown for 7-21 d in a greenhouse with an approximate 15 h photoperiod which was maintained at about 23-29° C. during the day and 22-28° C. during the night. Nutrients and water were added on a regular basis and supplemental lighting was provided with overhead metal halide 1000-Watt lamps as necessary. The plants were employed for testing when they reached the first or second true leaf stage.
(§2) A weighed amount, determined by the highest rate to be tested, of each test compound was placed in a 25 mL glass vial and was dissolved in 4 mL of a 97:3 v/v mixture of acetone and DMSO to obtain concentrated stock solutions. […] The concentrated stock solutions obtained were diluted with 20 mL of an aqueous mixture containing acetone, water, isopropyl alcohol, DMSO, Atplus 411F crop oil concentrate, and Triton® X-155 surfactant in a 48.5:39:10:1.5:1.0:0.02 v/v ratio to obtain spray solutions containing the highest application rates. Additional application rates were obtained by serial dilution of 12 mL of the high rate solution into a solution containing 2 mL of 97:3 v/v mixture of acetone and DMSO and 10 mL of an aqueous mixture containing acetone, water, isopropyl alcohol, DMSO, Atplus 411F crop oil concentrate, and Triton X-155 surfactant in a 48.5:39:10:1.5:1.0:0.02 v/v ratio to obtain ½×, ¼×, ⅛× and 1/16× rates of the high rate. Compound requirements are based upon a 12 mL application volume at a rate of 187 liters per hectare (L/ha). Formulated compounds were applied to the plant material with an overhead Mandel track sprayer equipped with 8002E nozzles calibrated to deliver 187 L/ha over an application area of 0.503 square meters at a spray height of 18 inches (43 cm) above the average plant canopy height. Control plants were sprayed in the same manner with the solvent blank.
(§3) The treated plants and control plants were placed in a greenhouse as described above and watered by subirrigation to prevent wash-off of the test compounds. After 14 d, the condition of the test plants as compared with that of the untreated plants was determined visually and scored on a scale of 0 to 100 percent where 0 corresponds to no injury and 100 corresponds to complete kill.
(§4) By applying the well-accepted probit analysis as described by J. Berkson in Journal of the […], 48, 565 (1953) and by D. Finney in “Probit Analysis” Cambridge University Press (1952), the above data can be used to calculate GR20, GR50 and GR80 values, which are defined as growth reduction factors that correspond to the effective dose of herbicide required to kill or control 20 percent, 50 percent or 80 percent, respectively, of a target plant.

[2] = system: CHEAL: lambsquarters (Chenopodium album); conditions: Chenopodium album, post-emergence, 336 h, read-out: Visual Growth Reduction (%)-14 Days after Application CHEAL; for pest or weed control at 140 g/ha: Table 3, 140 g ai/ha; for pest or weed control at 280 g/ha: Table 3, 280 g ai/ha; for pest or weed control at 70 g/ha: Table 3, 70 g ai/ha
Experimental: as §1, §2, §3, §4

[3] = system: CYPES: yellow nutsedge (Cyperus esculentus); conditions: post-emergence, 336 h, read-out: Visual Growth Reduction (%)-14 Days after Application CYPES; for pest or weed control at 140 g/ha: Table 3, 140 g ai/ha; for pest or weed control at 280 g/ha: Table 3, 280 g ai/ha; for pest or weed control at 70 g/ha: Table 3, 70 g ai/ha
Experimental: as §1, §2, §3, §4

[4] = system: ECHCG: barnyardgrass (Echinochloa crus-galli); conditions: post-emergence, 336 h, read-out: Visual Growth Reduction (%)-14 Days after Application ECHCG; for pest or weed control at 140 g/ha: Table 3, 140 g ai/ha; for pest or weed control at 280 g/ha: Table 3, 280 g ai/ha; for pest or weed control at 70 g/ha: Table 3, 70 g ai/ha
Experimental: as §1, §2, §3, §4

[5] = system: EPHHL: wild poinsettia (Euphorbia heterophylla); conditions: post-emergence, 336 h, read-out: Visual Growth Reduction (%)-14 Days after Application EPHHL; for pest or weed control at 140 g/ha: Table 3, 140 g ai/ha; for pest or weed control at 280 g/ha: Table 3, 280 g ai/ha; for pest or weed control at 70 g/ha: Table 3, 70 g ai/ha
Experimental: as §1, §2, §3, §4

[6] = system: ORYSA: rice (Oryza sativa); conditions: post-emergence, 336 h, read-out: Visual Growth Reduction (%)-14 Days after Application ORYSA; for pest or weed control at 140 g/ha: Table 3, 140 g ai/ha; for pest or weed control at 280 g/ha: Table 3, 280 g ai/ha; for pest or weed control at 70 g/ha: Table 3, 70 g ai/ha
Experimental: as §1, §2, §3, §4

[7] = system: ZEAMX: corn (Zea mays); conditions: Zea mays, post-emergence, 336 h, read-out: Visual Growth Reduction (%)-14 Days after Application ZEAMX; for pest or weed control at 140 g/ha: Table 3, 140 g ai/ha; for pest or weed control at 280 g/ha: Table 3, 280 g ai/ha; for pest or weed control at 70 g/ha: Table 3, 70 g ai/ha
Experimental: as §1, §2, §3, §4

| SMILES | pest or weed control at 140 g/ha [1] [%] | pest or weed control at 140 g/ha [2] [%] | pest or weed control at 140 g/ha [3] [%] | pest or weed control at 140 g/ha [4] [%] | pest or weed control at 140 g/ha [5] [%] | pest or weed control at 140 g/ha [6] [%] | pest or weed control at 140 g/ha [7] [%] | further results |
| --- | --- | --- | --- | --- | --- | --- | --- | --- |
| COC(=O)c1nc(-c2ccc(Cl)c(OC)c2F)cc(NC(C)=O)c1OC [Compound 3, methyl 4-acetamido-6-(4-chloro-2-fluoro-3-methoxyphenyl)-3-methoxypicolinate] | 100 | 100 | 0 | 0 | 100 | 0 | 10 | – |
| COC(=O)c1nc(-c2ccc(Cl)cc2F)cc(NC(C)=O)c1OC [Compound 4, Methyl 4-acetamido-6-(4-chloro-2-fluorophenyl)-3-methoxypicolinate] | 80 | 100 | 0 | 0 | 100 | 0 | 0 | – |
| COC(=O)c1nc(-c2ccc(Cl)cc2)cc(N)c1OC [Compound 7, methyl 4-amino-6-(4-chlorophenyl)-3-methoxypicolinate] | 90 | 100 | 0 | 0 | 95 | 0 | 0 | – |
| CCOC(=O)c1nc(-c2ccc(Cl)c(OC)c2F)cc(N)c1OC(F)F [Compound 8, ethyl 4-amino-6-(4-chloro-2-fluoro-3-methoxyphenyl)-3-(difluoromethoxy)picolinate] | – | – | – | – | – | – | – | pest or weed control at 280 g/ha [1]: 25%; pest or weed control at 280 g/ha [2]: 30%; pest or weed control at 280 g/ha [3]: 0%; pest or weed control at 280 g/ha [4]: 0%; pest or weed control at 280 g/ha [5]: 90%; pest or weed control at 280 g/ha [6]: 0%; pest or weed control at 280 g/ha [7]: 0% |
| COC(=O)c1nc(Cl)c(F)c(N)c1OC [Compound 10, methyl 4-amino-6-chloro-5-fluoro-3-methoxypicolinate] | – | – | – | – | – | – | – | pest or weed control at 280 g/ha [1]: 100%; pest or weed control at 280 g/ha [2]: 100%; pest or weed control at 280 g/ha [3]: 0%; pest or weed control at 280 g/ha [4]: 0%; pest or weed control at 280 g/ha [5]: 100%; pest or weed control at 280 g/ha [6]: 0%; pest or weed control at 280 g/ha [7]: 25% |
| COc1c(C(=O)O)nc(-c2ccc(C(F)(F)F)c(F)c2)c(F)c1N [Compound 11, 4-amino-5-fluoro-6-(3-fluoro-4-(trifluoromethyl)phenyl)-3-methoxypicolinic acid] | 100 | 100 | 50 | 100 | 100 | 12 | 80 | – |
| C=Cc1nc(C(=O)OC)c(OC)c(N)c1F [Compound 12, methyl 4-amino-5-fluoro-3-methoxy-6-vinylpicolinate] | – | – | – | – | – | – | – | pest or weed control at 280 g/ha [1]: 0%; pest or weed control at 280 g/ha [2]: 70%; pest or weed control at 280 g/ha [3]: 0%; pest or weed control at 280 g/ha [4]: 0%; pest or weed control at 280 g/ha [5]: 0%; pest or weed control at 280 g/ha [6]: 0%; pest or weed control at 280 g/ha [7]: 0% |
| COC(=O)c1nc(-c2ccc(Br)c(F)c2F)c(F)c(N)c1OC [Compound 19, methyl 4-amino-6-(4-bromo-2,3-difluorophenyl)-5-fluoro-3-methoxypicolinate] | – | – | – | – | – | – | – | pest or weed control at 70 g/ha [1]: 85%; pest or weed control at 70 g/ha [2]: 100%; pest or weed control at 70 g/ha [3]: 90%; pest or weed control at 70 g/ha [4]: 75%; pest or weed control at 70 g/ha [5]: 100%; pest or weed control at 70 g/ha [6]: 0%; pest or weed control at 70 g/ha [7]: 70% |
| COC(=O)c1nc(-c2ccc(Br)c(F)c2)c(F)c(N)c1OC [Compound 21] | – | – | – | – | – | – | – | pest or weed control at 70 g/ha [1]: 85%; pest or weed control at 70 g/ha [2]: 100%; pest or weed control at 70 g/ha [3]: 70%; pest or weed control at 70 g/ha [4]: 50%; pest or weed control at 70 g/ha [5]: 100%; pest or weed control at 70 g/ha [6]: 0%; pest or weed control at 70 g/ha [7]: 50% |
| COC(=O)c1nc(-c2ccc(Br)cc2F)c(F)c(N)c1OC [Compound 22] | 60 | 100 | 50 | 90 | 100 | 0 | 70 | – |
| COC(=O)c1nc(-c2ccc(I)cc2)c(F)c(N)c1OC [Compound 23, methyl 4-amino-5-fluoro-6-(4-iodophenyl)-3-methoxypicolinate] | 70 | 100 | 100 | 80 | 100 | 0 | 70 | – |
| COC(=O)c1nc(-c2ccc(I)c(F)c2F)c(F)c(N)c1OC [Compound 24] | 60 | 65 | 100 | 50 | 100 | 0 | 75 | – |
| COC(=O)c1nc(-c2ccc(I)cc2F)c(F)c(N)c1OC [Compound 26] | 10 | 90 | 50 | 55 | 100 | 0 | 75 | – |
| COC(=O)c1nc(-c2ccc(I)c(F)c2)c(F)c(N)c1OC [Compound 27] | 60 | 90 | 100 | 60 | 100 | 0 | 70 | – |
